Assay results taken from patent US8119624B2, “Fused phenyl amido heterocyclic compounds” (Pfizer Inc., priority 2006, dated 2012).
Where two headings read alike, the source gives them in different places.

Molecular target: T1, Full-length glucokinase (beta cell isoform) (Homo sapiens, UniProt P35557)
T1 construct: Full-length glucokinase (beta cell isoform) was His-tagged at N-terminus; His tag (N); made in house
T1 sequence (P35557 1-465): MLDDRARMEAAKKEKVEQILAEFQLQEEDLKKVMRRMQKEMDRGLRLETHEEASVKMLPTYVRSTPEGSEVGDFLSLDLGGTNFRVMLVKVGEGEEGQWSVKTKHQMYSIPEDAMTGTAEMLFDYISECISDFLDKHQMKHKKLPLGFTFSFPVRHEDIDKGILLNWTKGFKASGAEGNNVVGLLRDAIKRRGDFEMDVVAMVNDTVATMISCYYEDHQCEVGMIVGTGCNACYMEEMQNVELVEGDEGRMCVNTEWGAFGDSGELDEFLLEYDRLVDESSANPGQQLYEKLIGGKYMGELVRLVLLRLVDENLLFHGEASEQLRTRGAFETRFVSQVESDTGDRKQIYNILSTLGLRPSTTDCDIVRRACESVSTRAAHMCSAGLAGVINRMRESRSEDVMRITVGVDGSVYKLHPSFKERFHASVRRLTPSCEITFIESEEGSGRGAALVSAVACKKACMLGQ
Assay: Glucokinase biochemical assay (PK/LDH-coupled, NADH depletion at 340 nm): % activation, EC50, % max activation
Details: 5 mM glucose; for activation at 10 µM: read-out: % Activation at 10 uM; for EC50: read-out: EC50; for Emax: read-out: % Max Activation
In short: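 N-terminally His-tagged full-length human beta-cell glucokinase, room temperature, 5 mM glucose, 1 mM ATP, PK/LDH-coupled with 0.7 mM NADH, 1% DMSO final. Initial velocity from the 200–900 s slope of A340 decline. % activation = (Va/Vo−1)×100, measured across compound concentrations.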

[1] = 10 uM compound, % Activation=(Va/Vo−1)×100
[2] = compound at 10 uM, 1 mM ATP, room temperature

Row | SMILES | activation at 10 µM [1] [%] | EC50 (GK activation) [nM] | Emax (fitted maximum activation) [%] | other results
1 | Cn1ncc(NC(=O)c2cc(Oc3ccc(S(C)(=O)=O)cc3)c3c(c2)OC(C)(C)C3)n1 [Example 20, 4-(4-Methanesulfonyl-phenoxy)-2,2-dimethyl-2,3-dihydro-benzofuran-6-carbo-xylic acid(2-methyl-2H-[1,2,3]triazol-4-yl)-amide] | 230 | 314 | 231 | 
2 | CN(C)S(=O)(=O)c1cc(F)c(Oc2cc(C(=O)Nc3cnn(C)n3)cc3c2CC(C)(C)O3)cc1F [Example 138, 4-(4-Dimethylsulfamoyl-2,5-difluoro-phenoxy)-2,2-dimethyl-2,3-dihydro-benzofuran-6-carboxylic acid (2-methyl-2H-[1,2,3]triazol-4-yl)-amide] | 218 | 340 | 224 | 
3 | CN(C)C(=O)c1ccc(Oc2cc(C(=O)Nc3ccn(C)n3)cc3c2CC(C)(C)O3)cn1 [Example 161, 5-[2,2-Dimethyl-6-(1-methyl-1H-pyrazol-3-ylcarbamoyl)-2,3-dihydro-benzofuran-4-yloxy]-pyridine-2-carboxylic acid dimethylamide] | 191 | 175 | 143 | 
4 | CCCc1noc(COc2cc(C(=O)Nc3ccn(C)n3)cc3c2CC(C)(C)O3)n1 [Example 100, 2,2-Dimethyl-4-(3-propyl-[1,2,4]oxadiazol-5-ylmethoxy)-2,3-dihydro-benzofuran-6-carboxylic acid (1-methyl-1H-pyrazol-3-yl)-amide] | 171 | 1600 | 156 | 
5 | Cn1ccc(NC(=O)c2cc(Oc3ccc(C(=O)N4CCC4)c(F)c3)c3c(c2)OC(C)(C)C3)n1 [Example 33, 4-[4-(Azetidine-1-carbonyl)-3-fluoro-phenoxy]-2,2-dimethyl-2,3-dihydro-benzofuran-6-carboxylic acid(1-methyl-1H-pyrazol-3-yl)-amide] |  | 66.1 |  | % Activation at 10 uM [1]: 170%; % Max Activation (fitted maximum activation): 171%
6 | CN(C)C(=O)c1ccc(Oc2cc(C(=O)Nc3ccon3)cc3c2CC(C)(C)O3)cc1F [Example 144, 4-(4-Dimethylcarbamoyl-3-fluoro-phenoxy)-2,2-dimethyl-2,3-dihydro-benzofuran-6-carboxylic acid isoxazol-3-ylamide] | 103 | 269 | 100 | 
7 | Cn1ccc(NC(=O)c2cc(OC3CN(S(C)(=O)=O)C3)c3c(c2)OC(C)(C)C3)n1 [Example 193, 4-(1-Methanesulfonyl-azetidin-3-yloxy)-2,2-dimethyl-2,3-dihydro-benzofuran-6-carboxylic acid (1-methyl-1H-pyrazol-3-yl)-amide] | 116 | 8800 | 237 | 
8 | Cc1ccc(NC(=O)c2cc(Oc3ccc(C(=O)N(C)C)c(F)c3)c3cc(C)oc3c2)nc1 [Example 273, 4-(4-(Dimethylcarbamoyl)-3-fluorophenoxy)-2-methyl-N-(5-methylpyridin-2-yl)benzofuran-6-carboxamide] | 12.7 |  |  | 
9 | CCOc1cc(C(=O)Nc2ccn(C)n2)cc2c1CC(C)(C)O2 [Example 92, 4-Ethoxy-2,2-dimethyl-2,3-dihydro-benzofuran-6-carboxylic acid (1-methyl-1H-pyrazol-3-yl)-amide] | 87 | 9500 | 164 | 
10 | Cn1ccc(NC(=O)c2cc(Oc3ccc(S(C)(=O)=O)cc3)c3c(c2)C(=O)N(C2CC2)C3)n1 [Example 386, 2-Cyclopropyl-N-(1-methyl-1H-pyrazol-3-yl)-7-(4-(methylsulfonyl)-phenoxy)-3-oxoisoindoline-5-carboxamide] |  |  |  | EC50 (1 mM ATP, room temperature): > 10000 nM; activation at 10 µM [2]: 78.8%
11 | Cc1cc2c(Oc3ccc(S(=O)(=O)N(C)C)c(F)c3)cc(C(=O)Nc3cnn(C)n3)cc2o1 [Example 306, 4-{4-[(Dimethylamino)sulfonyl]-3-fluorophenoxy}-2-methyl-N-(2-methyl-2H-1,2,3-triazol-4-yl)-1-benzofuran-6-carboxamide] | 185 | 330 | 186 | 
12 | Cn1ncc(NC(=O)c2cc(Oc3ccc(S(C)(=O)=O)cc3)cc3c2CC(C)(C)O3)n1 [Example 198, 6-(4-Methanesulfonyl-phenoxy)-2,2-dimethyl-2,3-dihydro-benzofuran-4-carboxylic acid (2-methyl-2H-[1,2,3]triazol-4-yl)-amide] | 51.4 | > 10000 |  | 
13 | Cc1cc2c(Oc3ccc(S(C)(=O)=O)cc3)cc(C(=O)Nc3cccc(CO)n3)cc2o1 [Example 268, N-(6-(Hydroxymethyl)pyridin-2-yl)-2-methyl-4-(4-(methylsulfonyl)phenoxy)-benzofuran-6-carboxamide] | 6.4 | > 10000 |  | 
14 | Cc1ccc(NC(=O)c2cc(Oc3ccc(S(C)(=O)=O)cc3)c3sc(C)cc3c2)nc1 [Example 329, 2-Methyl-N-(5-methylpyridin-2-yl)-7-[4-(methylsulfonyl)-phenoxy]-1-benzothiophene-5-carboxamide] | 86.8 | 1600 | 113 | 
15 | Cc1ccc(NC(=O)c2cc(Oc3ccc(S(C)(=O)=O)cc3)c3ncsc3c2)nc1 [Example 371, N-(5-Methylpyridin-2-yl)-4-[4-(methylsulfonyl)phenoxy]-1,3-benzothiazole-6-carboxamide] | 35.5 |  |  | 
16 | Cc1ccc(NC(=O)c2cc(Oc3ccc(S(C)(=O)=O)cc3)c3ccoc3c2)nc1 [Example 9, 4-(4-Methanesulfonyl-phenoxy)-benzofuran-6-carboxylic acid(5-methyl-pyridin-2-yl)-amide] | 72.7 | 3080 | 94.7 | 
17 | Cn1ccc(NC(=O)c2cc(Oc3ccc(S(C)(=O)=O)cc3)cc3c2CC(C)(C)O3)n1 [Example 199, 6-(4-Methanesulfonyl-phenoxy)-2,2-dimethyl-2,3-dihydro-benzofuran-4-carboxylic acid (1-methyl-1H-pyrazol-3-yl)-amide] | 40.3 | > 10000 |  | 
18 | COCc1cc2c(Oc3ccc(S(C)(=O)=O)cc3)cc(C(=O)Nc3cnc(OC)cn3)cc2o1 [Example 312, 2-(Methoxymethyl)-N-(5-methoxypyrazin-2-yl)-4-[4-(methylsulfonyl)phenoxy]-1-benzofuran-6-carboxamide] | 112 | 490 | 121 | 
19 | COc1cnc(NC(=O)c2cc(Oc3ccc(S(C)(=O)=O)cc3)c3cc(C)oc3c2)cn1 [Example 263, N-(5-methoxypyrazin-2-yl)-2-methyl-4-(4-(methylsulfonyl)-phenoxy)-benzofuran-6-carboxamide] | 157 | 840 | 146 | 
20 | Cc1ccc(NC(=O)c2cc(Oc3ccc(S(C)(=O)=O)cc3)c3c(C)csc3c2)nc1 [Example 350, 3-Methyl-N-(5-methylpyridin-2-yl)-4-[4-(methylsulfonyl)-phenoxy]-1-benzothiophene-6-carboxamide] | 11.2 |  |  | 
21 | Cn1ccc(NC(=O)c2cc(Oc3ccc(C(=O)N4CCCC4)nc3)c3c(c2)OC(C)(C)C3)n1 [Example 398, 2,2-Dimethyl-4-[6-(pyrrolidine-1-carbonyl)-pyridin-3-yloxy]-2,3-dihydro-benzofuran-6-carboxylic acid(1-methyl-1H-pyrazol-3-yl)-amide] |  |  |  | EC50 (1 mM ATP, room temperature): 56 nM; activation at 10 µM [2]: 128%; Emax (fitted maximum activation, 1 mM ATP): 114%
22 | Cn1ccc(NC(=O)c2cc(Oc3ccc(S(C)(=O)=O)cc3)c3ccoc3c2)n1 [Example 343] | 82.5 | > 10000 |  | 
23 | CC1(C)Cc2c(Oc3ccc(S(C)(=O)=O)cc3)cc(C(=O)Nc3cnccn3)cc2O1 [Example 17, 4-(4-Methanesulfonyl-phenoxy)-2,2-dimethyl-2,3-dihydrobenzofuran-6-carboxy-lic acid pyrazin-2-ylamide] | 161 | 510 | 165 | 
24 | COCC1Cc2c(Oc3ccc(S(C)(=O)=O)cc3)cc(C(=O)Nc3ccn(C)n3)cc2O1 (stereo not shown) [Example 201, 4-(4-Methanesulfonyl-phenoxy)-2-methoxymethyl-2,3-dihydro-benzofuran-6-carboxylic acid (1-methyl-1H-pyrazol-3-yl)-amide] | 107 | 2800 | 137 | 
25 | Cc1cc2c(Oc3ccc(S(C)(=O)=O)cc3)cc(C(=O)Nc3ccon3)cc2o1 [Example 258, N-(Isoxazol-3-yl)-2-methyl-4-(4-(methylsulfonyl)phenoxy)-benzofuran-6-carboxamide] | 99.7 | 5800 | 142 | 
26 | CN(C)C(=O)c1ccc(Oc2cc(C(=O)Nc3cnn(C)n3)cc3c2CC(C)(C)O3)cc1 [Example 153, 4-(4-Dimethylcarbamoyl-phenoxy)-2,2-dimethyl-2,3-dihydro-benzofuran-6-carboxylic acid (2-methyl-2H-[1,2,3]triazol-4-yl)-amide] | 168 | 150 | 161 | 
